One experiment addresses T1, ML1b receptor (Homo sapiens, UniProt P49286).
T1 construct: expressed in transfected cells
T1 sequence (P49286 1-362): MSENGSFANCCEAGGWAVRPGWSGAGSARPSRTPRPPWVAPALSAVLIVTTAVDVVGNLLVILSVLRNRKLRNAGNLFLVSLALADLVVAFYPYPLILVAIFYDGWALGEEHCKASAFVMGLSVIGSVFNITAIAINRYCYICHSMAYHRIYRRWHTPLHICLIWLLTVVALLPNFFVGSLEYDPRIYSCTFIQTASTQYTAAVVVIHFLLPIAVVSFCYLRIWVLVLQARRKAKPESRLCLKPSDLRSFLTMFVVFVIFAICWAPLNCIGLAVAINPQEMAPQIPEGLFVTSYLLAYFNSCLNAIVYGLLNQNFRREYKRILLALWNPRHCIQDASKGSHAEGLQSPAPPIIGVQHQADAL
The experiment is described as follows: Melatonergic receptor binding activity, 2-[125I]-iodomelatonin, ML1b. Particulars: 37° C. for 1 hour. As for the experimental part:
(§1) Melatonergic Receptor Binding Activity
(§2) (a) TME=50 mM Tris buffer containing 12.5 mM MgCl2, and 2 mM EDTA, pH 7.4 at 37° C., with concentrated HCl.
(§3) (b) Wash buffer: 20 mM Tris base containing 2 mM MgCl2, pH 7.4 at room temperature.
(§4) (c) 10^−4 M melatonin (10^−5 M final concentration).
(§5) (d) 2-[^125I]-iodomelatonin, […] final concentration.
(§6) 3. Incubation: 37° C. for 1 hour. Reaction is terminated by filtration. Filters were washed 3 times.
(§7) The compounds of the present invention have affinity for receptors of the endogenous pineal hormone, melatonin, as determined in a receptor binding assays described above in Tables I to V for the ML1a and ML1b (human) receptors. Melatonin is involved in the regulation of a variety of biological rhythms and exerts its biological effects via interaction with specific receptors. There is evidence that administration of melatonin agonists are of clinical utility in the treatment of various conditions regulated by melatonin activity. Such conditions include depression, jet-lag, work-shift syndrome, sleep disorders, glaucoma, some disorders associated with reproduction, cancer benign prostatic hyperplasia, immune disorders and neuroendocrine disorders.

The target in a further experiment is T2, ML1a receptor (Homo sapiens, UniProt P48039).
T2 construct: expressed in transfected cells; pcDNA3)
T2 sequence (P48039 whole entry): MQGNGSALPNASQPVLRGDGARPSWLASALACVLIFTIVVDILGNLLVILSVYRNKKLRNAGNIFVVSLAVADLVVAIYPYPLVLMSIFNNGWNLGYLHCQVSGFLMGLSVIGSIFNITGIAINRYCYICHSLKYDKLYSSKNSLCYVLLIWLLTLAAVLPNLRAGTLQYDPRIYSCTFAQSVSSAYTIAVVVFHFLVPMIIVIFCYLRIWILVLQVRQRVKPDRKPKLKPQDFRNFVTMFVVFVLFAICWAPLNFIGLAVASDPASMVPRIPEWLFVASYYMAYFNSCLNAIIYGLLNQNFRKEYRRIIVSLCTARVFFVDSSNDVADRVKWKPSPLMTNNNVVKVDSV
The experiment is described as follows: Melatonergic receptor binding activity, 2-[125I]-iodomelatonin, ML1a. Particulars: membrane homogenates of NIH-3T3 cells, 37° C. for 1 hour. As for the experimental part:
as §1, §2, §3, §4, §5
2. Membrane Homogenates: The melatonin ML1α receptor cDNA was subcloned into pcDNA3 and introduced into NIH-3T3 cells using Lipofectamine. Transformed NIH-3T3 cells resistant to geneticin (G-418) were isolated, and single colonies expressing high levels of 2-[^125I]-iodomelatonin binding were isolated. Cells are maintained in DMEM supplemented with 10% calf serum and G-418 (0.5 g/liter). Cells are grown to confluency in T-175 flasks, scraped using Hank's balanced salt solution, and frozen at −80° C. For preparing membrane homogenates, pellets are thawed on ice, and re-suspended in TME buffer in the presence of 10 μg/ml aprotinin and leupeptin, and 100 μM phenylmethylsulfonylfluoride. The cells were then homogenized using a dounce homogenizer, and centrifuged. The resulting pellet was re-suspended with dounce homogenizer in TME (supplemented with the above protease inhibitors) and frozen. On the day of assay, a small aliquot was thawed on ice and re-suspended in the ice cold TME (1:50-1:100 v/v) and held on ice until assayed.
as §6, §7

Bounds are passed on as bounds.

As usually defined, the IC50 is the concentration needed to halve the response being measured.

Consider `CC(=O)NCCCc1cccc2oc(CCCCc3ccccc3)cc12` [Example 9, N-[3-[2-(4-Phenylbutyl)benzofuran-4-yl]propyl]acetamide], for which the IC50 on ML1b receptor (Table II) and at ML1a receptor (Table II) was 10 to 250 nM throughout.

As to `CC(C)C(=O)NC[C@@H]1C[C@H]1c1cccc2c1C[C@@H](CCCCc1ccccc1)O2` [Example 45, N-({2-[(2R)-2-(4-Phenylbutyl)(2,3-dihydrobenzo[b]furan-4-yl)]-(1R,2R)cyclopropyl}methyl)-2-methylpropanamide], the IC50 at ML1b receptor (Table V) and at ML1a receptor (Table V) was 10 to 250 nM each time.

For `CC(C)C(=O)NCCCc1cccc2oc(CCCCc3ccccc3)cc12` [Example 12, N-[3-[2-(4-Phenylbutyl)benzofuran-4-yl]propyl]-2-methyl Propionamide], the IC50 at ML1b receptor (Table II) is 10 to 250 nM; at ML1a receptor (Table II), under 10 nM.

On to `CCCC(=O)NC[C@H]1C[C@@H]1c1cccc2oc(CCCCc3ccccc3)cc12` (racemic) [Example 32, N-({(1R,2R)-2-[2-(4-Phenylbutyl)benzo[b]furan-4-yl]-cyclopropyl}methyl)butanamide], for which the IC50 at ML1b receptor (Table IV) and on ML1a receptor (Table IV) was 10 to 250 nM in each case.

With `CCC(=O)NCCCc1cccc2oc(CCCCc3ccc(C(F)(F)F)cc3)cc12` [Example 16, N-[3-[2-[4-(4-Trifluoromethylphenyl)butyl]benzofuran-4-yl]propyl]-propionamide], the IC50 at ML1b receptor (Table III) and at ML1a receptor (Table III) was 10 to 250 nM throughout.

On to `CCC(=O)NCCCc1cccc2oc(CCCCc3ccccc3)cc12` [Example 10, N-[3-[2-(4-Phenylbutyl)benzofuran-4-yl]propyl]propionamide], for which the figures for the IC50 at ML1b receptor (Table II) and at ML1a receptor (Table II) were 10 to 250 nM and under 10 nM, respectively.

On to `CC(=O)NC[C@@H]1C[C@H]1c1cccc2oc(CCCCc3ccc(F)cc3)cc12` (stereo in doubt) [Example 36, N-[((1R,2R)-2-{2-[4-(4-Fluorophenyl)butyl]benzo[b]furan-4-yl}-cyclopropyl)methyl]acetamide], for which the IC50 at ML1b receptor (Table IV) is 10 to 250 nM; on ML1a receptor (Table IV), under 10 nM.

With “N-3-(2-(2-Phenyleth-1-yl)benzofuran-3-yl)prop-1-yl Acetamide [Example 23]”, the IC50 on ML1b receptor (Table III) and at ML1a receptor (Table III) was 10 to 250 nM each time.

Regarding `CCNC(=O)NC[C@@H]1C[C@H]1c1cccc2oc(CCCCc3ccccc3)cc12` (stereo in doubt) [Example 35, N-({(1R,2R)-2-[2-(4-Phenylbutyl)benzo[b]furan-4-yl]-cyclopropyl}methyl)(ethylamino)carboxamide], the IC50 on ML1b receptor (Table IV) and at ML1a receptor (Table IV) was 10 to 250 nM throughout.

For `CC(=O)NC[C@H]1C[C@@H]1c1cccc2oc(CCCCc3ccccc3)cc12` (racemic) [Example 28, N-({(1R,2R)-2-[2-(4-Phenylbutyl)benzo[b]furan-4-yl]-cyclopropyl}methyl)acetamide], the figures for the IC50 at ML1b receptor (Table IV) and at ML1a receptor (Table IV) were 10 to 250 nM and under 10 nM, respectively.

For the compound `CC(=O)NC[C@H]1C[C@@H]1c1cccc2oc(CCCCc3ccccc3)cc12` (single isomer, unassigned) [Example 29], the IC50 at ML1b receptor (Table IV) was 10 to 250 nM; on ML1a receptor (Table IV), under 10 nM.

Regarding `CC(C)C(=O)NCCCc1cccc2oc(CCCCc3ccc(C(F)(F)F)cc3)cc12` [Example 18, N-[3-[2-[4-(4-Trifluoromethylphenyl)butyl]benzofuran-4-yl]propyl]-isobutyramide], the IC50 is over 250 nM on ML1b receptor (Table III) and 10 to 250 nM on ML1a receptor (Table III).

On to “N-({2-[(2R)-5,7-Dichloro-2-(4-phenylbutyl)(2,3-dihydrobenzo[b]furan-4-yl)](1R,2R)cyclopropyl}methyl)butanamide [Example 49]”, for which the figures for the IC50 at ML1b receptor (Table V) and on ML1a receptor (Table V) were 10 to 250 nM and over 250 nM, respectively.

As to `CCCC(=O)NCCCc1cccc2oc(CCCCc3ccccc3)cc12` [Example 11, N-[3-[2-(4-Phenylbutyl)benzofuran-4-yl]propyl]butyramide], the IC50 on ML1b receptor (Table II) and on ML1a receptor (Table II) was 10 to 250 nM in each case.

Regarding `CCC(=O)NC[C@H]1C[C@@H]1c1cccc2oc(CCCCc3ccccc3)cc12` (racemic) [Example 31, N-({(1R,2R)-2-[2-(4-Phenylbutyl)benzo[b]furan-4-yl]-cyclopropyl}methyl)propanamide], the IC50 at ML1b receptor (Table IV) and on ML1a receptor (Table IV) was under 10 nM in each case.

Consider `O=C(NC[C@@H]1C[C@H]1c1cccc2c1C[C@@H](CCCCc1ccccc1)O2)C1CC1` [Example 46, N-({2-[(2R)-2-(4-Phenylbutyl)(2,3-dihydrobenzo[b]furan-4-yl)]-(1R,2R)cyclopropyl}methyl)cyclopropylcarboxamide], for which the IC50 at ML1b receptor (Table V) was 10 to 250 nM; at ML1a receptor (Table V) it was under 10 nM.

Regarding “N-3-(2-(3-Phenylprop-1-yl)benzofuran-3-yl)prop-1-yl Propanamide [Example 20]”, the IC50 on ML1b receptor (Table III) is over 250 nM; at ML1a receptor (Table III) it was 10 to 250 nM.

Consider `O=C(NCCCc1cccc2oc(CCCCc3ccc(C(F)(F)F)cc3)cc12)C1CC1` [Example 13, N-[3-[2-[4-(4-Trifluoromethylphenyl)butyl]benzofuran-4-yl]propyl]-cyclopropane Carboxamide], for which the IC50 on ML1b receptor (Table III) and on ML1a receptor (Table III) was over 250 nM throughout.

As to `CCCC(=O)NCCCc1cccc2c1C[C@H](CCCCc1ccccc1)O2` [Example 3, N-[3-[2-(4-Phenylbutyl)-2,3-dihydrobenzofuran-4-yl]propyl]butyramide], the IC50 at ML1b receptor (Table I) was 10 to 250 nM; on ML1a receptor (Table I), under 10 nM.

In the case of “N-3-(2-(3-Phenylprop-1-yl)benzofuran-3-yl)prop-1-yl Cyclopropanecarboxamide [Example 22]”, the IC50 on ML1b receptor (Table III) is over 250 nM; on ML1a receptor (Table III), 10 to 250 nM.

“N-3-(2-(3-Phenylprop-1-yl)benzofuran-3-yl)prop-1-yl Butyramide [Example 21]”: the IC50 on ML1b receptor (Table III) was over 250 nM; on ML1a receptor (Table III), 10 to 250 nM.

In the case of `CCCC(=O)NC[C@@H]1C[C@H]1c1cccc2oc(CCCCc3ccc(F)cc3)cc12` (stereo in doubt) [Example 38, N-[((1R,2R)-2-{2-[4-(4-Fluorophenyl)butyl]benzo[b]furan-4-yl}-cyclopropyl)methyl]butanamide], the half-inhibitory concentration (IC50) at ML1b receptor (Table IV) and on ML1a receptor (Table IV) was 10 to 250 nM throughout.

For the compound `CCC(=O)NC[C@@H]1C[C@H]1c1cccc2oc(CCCCc3ccc(F)cc3)cc12` (stereo in doubt) [Example 37, N-[((1R,2R)-2-{2-[4-(4-Fluorophenyl)butyl]benzo[b]furan-4-yl}-cyclopropyl)methyl]propanamide], the IC50 on ML1b receptor (Table IV) is 10 to 250 nM; on ML1a receptor (Table IV), under 10 nM.

For “N-3-(2-(2-Phenyleth-1-yl)benzofuran-3-yl)prop-1-yl-cyclopropanecarboxamide [Example 26]”, the IC50 at ML1b receptor (Table III) and on ML1a receptor (Table III) was 10 to 250 nM throughout.

With `CC(=O)NC[C@H]1C[C@@H]1c1cccc2oc(CCCCc3ccccc3)cc12` (single isomer, unassigned) [Example 30], the figures for the 50% inhibitory concentration (IC50) at ML1b receptor (Table IV) and on ML1a receptor (Table IV) were over 250 nM and 10 to 250 nM, respectively.

In the case of `O=C(NC[C@H]1C[C@@H]1c1cccc2oc(CCCCc3ccccc3)cc12)C1CC1` (racemic) [Example 34, N-({(1R,2R)-2-[2-(4-Phenylbutyl)benzo[b]furan-4-yl]-cyclopropyl}methyl)cyclopropylcarboxamide], the IC50 on ML1b receptor (Table IV) and on ML1a receptor (Table IV) was 10 to 250 nM each time.

As for “N-3-(2-(2-Phenyleth-1-yl)benzofuran-3-yl)prop-1-yl Propanamide [Example 24]”, the IC50 on ML1b receptor (Table III) and on ML1a receptor (Table III) was 10 to 250 nM in each case.

As to `CC(C)C(=O)NC[C@H]1C[C@@H]1c1cccc2oc(CCCCc3ccccc3)cc12` (racemic) [Example 33, N-({(1R,2R)-2-[2-(4-Phenylbutyl)benzo[b]furan-4-yl]-cyclopropyl}methyl)-2-methylpropanamide], the IC50 on ML1b receptor (Table IV) and on ML1a receptor (Table IV) was 10 to 250 nM in each case.
